One block for each compound: values may come before it.
Columns and labels:
[1] = biological target: Alpha-2C adrenergic receptor (Homo sapiens, UniProt P18825); test: GPCRScan assay: inhibition of Alpha2C; design: radioligand conc. used [nm] 0.5 – 1.0, parental cells stable MDCK
D(1A) dopamine receptor = D(1A) dopamine receptor (Homo sapiens, UniProt P21728); test: GPCRScan assay: inhibition of D1; design: radioligand conc. used [nm] 0.6 – 1.3, parental cells HEKT
[2] = biological target: Tyrosine-protein kinase JAK1 (Homo sapiens) (UniProt P23458); test: JAK1 Kinase activity screen; conditions: Compound concentration 0.1 uM
[3] = biological target: Serine/threonine-protein kinase PLK1 (Homo sapiens) (UniProt P53350); test: PLK1 Kinase activity screen
[4] = biological target: RAC-alpha serine/threonine-protein kinase (Homo sapiens) (UniProt P31749); test: AKT1 (PKB alpha) Kinase activity screen; conditions: Compound concentration 0.1 uM
[5] = biological target: Mitogen-activated protein kinase 9 (Homo sapiens) (UniProt P45984); test: MAPK9 (JNK2) Kinase activity screen
[6] = biological target: MAP kinase-activated protein kinase 2 (Homo sapiens) (UniProt P49137); test: MAPKAPK2 Kinase activity screen
MAP kinase-activated protein kinase 2 (Homo sapiens), sequence (P49137 whole entry, looked up): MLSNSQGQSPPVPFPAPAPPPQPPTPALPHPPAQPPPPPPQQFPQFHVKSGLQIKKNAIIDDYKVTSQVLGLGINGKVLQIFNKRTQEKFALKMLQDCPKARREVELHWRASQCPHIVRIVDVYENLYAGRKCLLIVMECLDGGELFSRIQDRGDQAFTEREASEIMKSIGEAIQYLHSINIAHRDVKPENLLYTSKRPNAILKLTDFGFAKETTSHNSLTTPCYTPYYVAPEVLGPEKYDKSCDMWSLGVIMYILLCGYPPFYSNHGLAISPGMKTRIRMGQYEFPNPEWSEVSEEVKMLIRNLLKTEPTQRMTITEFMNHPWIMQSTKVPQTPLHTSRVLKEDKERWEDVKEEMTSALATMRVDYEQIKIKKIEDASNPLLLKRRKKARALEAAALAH

[7] = biological target: Mast/stem cell growth factor receptor Kit (Homo sapiens) (UniProt P10721); test: KIT Kinase activity screen
[8] = biological target: Proto-oncogene tyrosine-protein kinase ROS (Homo sapiens) (UniProt P08922); test: ROS1 Kinase activity screen
[9] = biological target: Ephrin type-A receptor 1 (Homo sapiens) (UniProt P21709); test: EPHA1 Kinase activity screen
Ephrin type-A receptor 1 (Homo sapiens), sequence (P21709 whole entry): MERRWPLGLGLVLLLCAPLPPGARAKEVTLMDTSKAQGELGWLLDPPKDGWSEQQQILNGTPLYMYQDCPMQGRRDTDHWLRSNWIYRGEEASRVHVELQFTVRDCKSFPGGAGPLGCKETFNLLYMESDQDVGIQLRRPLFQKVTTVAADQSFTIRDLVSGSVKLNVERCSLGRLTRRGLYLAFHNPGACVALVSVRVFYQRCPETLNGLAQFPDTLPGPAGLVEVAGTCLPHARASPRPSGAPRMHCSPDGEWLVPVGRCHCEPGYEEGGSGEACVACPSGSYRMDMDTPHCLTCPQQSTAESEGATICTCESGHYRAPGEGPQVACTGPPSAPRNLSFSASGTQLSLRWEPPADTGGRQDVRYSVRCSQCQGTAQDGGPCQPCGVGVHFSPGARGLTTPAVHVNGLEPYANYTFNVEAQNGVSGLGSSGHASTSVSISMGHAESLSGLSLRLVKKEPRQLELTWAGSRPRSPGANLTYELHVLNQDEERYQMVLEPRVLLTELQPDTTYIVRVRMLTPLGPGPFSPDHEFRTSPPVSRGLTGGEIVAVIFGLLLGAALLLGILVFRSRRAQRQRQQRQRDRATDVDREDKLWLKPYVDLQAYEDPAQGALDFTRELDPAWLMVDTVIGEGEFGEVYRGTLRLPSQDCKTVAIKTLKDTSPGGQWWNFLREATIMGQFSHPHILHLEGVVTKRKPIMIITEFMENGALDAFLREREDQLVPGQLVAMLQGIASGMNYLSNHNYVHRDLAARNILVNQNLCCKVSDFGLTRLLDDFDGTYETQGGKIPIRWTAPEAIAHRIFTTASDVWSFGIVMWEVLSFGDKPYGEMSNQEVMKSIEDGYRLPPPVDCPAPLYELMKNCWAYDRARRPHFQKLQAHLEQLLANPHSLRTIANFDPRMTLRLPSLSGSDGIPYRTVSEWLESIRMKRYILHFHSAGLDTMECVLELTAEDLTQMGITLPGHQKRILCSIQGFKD

[10] = biological target: Ephrin type-A receptor 2 (Homo sapiens) (UniProt P29317); test: EPHA2 Kinase activity screen
[11] = biological target: Rho-associated protein kinase 1 (Homo sapiens) (UniProt Q13464); test: ROCK1 Kinase activity screen
Rho-associated protein kinase 1 (Homo sapiens), sequence (Q13464 2-1354 limits assumed): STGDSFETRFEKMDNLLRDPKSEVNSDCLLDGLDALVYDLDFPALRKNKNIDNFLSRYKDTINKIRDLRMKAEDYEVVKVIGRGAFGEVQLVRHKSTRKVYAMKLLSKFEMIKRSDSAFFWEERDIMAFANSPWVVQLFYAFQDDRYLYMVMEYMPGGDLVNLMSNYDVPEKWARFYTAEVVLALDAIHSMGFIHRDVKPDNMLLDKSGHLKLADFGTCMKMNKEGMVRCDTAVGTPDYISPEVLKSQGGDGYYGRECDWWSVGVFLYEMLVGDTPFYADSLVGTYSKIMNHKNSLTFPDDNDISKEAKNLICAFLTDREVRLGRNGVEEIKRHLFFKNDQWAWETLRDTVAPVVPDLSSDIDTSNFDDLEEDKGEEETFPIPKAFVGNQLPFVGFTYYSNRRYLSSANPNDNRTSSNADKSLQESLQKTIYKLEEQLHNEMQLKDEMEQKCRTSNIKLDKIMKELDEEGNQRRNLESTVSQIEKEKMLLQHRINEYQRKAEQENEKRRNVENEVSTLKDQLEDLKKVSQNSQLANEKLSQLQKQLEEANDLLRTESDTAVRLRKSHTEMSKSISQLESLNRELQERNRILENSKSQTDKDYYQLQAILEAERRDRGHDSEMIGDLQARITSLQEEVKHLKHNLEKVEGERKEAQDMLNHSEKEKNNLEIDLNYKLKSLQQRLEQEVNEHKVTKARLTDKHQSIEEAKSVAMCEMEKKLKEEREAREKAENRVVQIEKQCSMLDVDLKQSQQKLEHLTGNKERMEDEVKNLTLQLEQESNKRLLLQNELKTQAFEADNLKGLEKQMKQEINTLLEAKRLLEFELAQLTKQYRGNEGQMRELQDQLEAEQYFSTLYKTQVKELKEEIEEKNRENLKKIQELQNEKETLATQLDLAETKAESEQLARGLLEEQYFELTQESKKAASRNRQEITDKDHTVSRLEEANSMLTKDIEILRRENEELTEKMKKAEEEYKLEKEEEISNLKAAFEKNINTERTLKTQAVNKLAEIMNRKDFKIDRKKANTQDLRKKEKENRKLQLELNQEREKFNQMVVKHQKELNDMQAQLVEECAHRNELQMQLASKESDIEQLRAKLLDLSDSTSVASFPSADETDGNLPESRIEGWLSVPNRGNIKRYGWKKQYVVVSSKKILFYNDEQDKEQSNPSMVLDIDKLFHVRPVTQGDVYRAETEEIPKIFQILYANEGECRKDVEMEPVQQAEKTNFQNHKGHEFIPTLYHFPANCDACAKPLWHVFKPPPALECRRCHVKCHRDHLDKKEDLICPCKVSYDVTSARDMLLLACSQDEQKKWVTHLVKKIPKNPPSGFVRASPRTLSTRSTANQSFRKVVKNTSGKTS

[12] = biological target: Tyrosine-protein kinase ABL1 (Homo sapiens) (UniProt P00519); test: ABL1 Kinase activity screen
[13] = biological target: Dual specificity mitogen-activated protein kinase kinase 1 (Homo sapiens) (UniProt Q02750); test: MAP2K1 (MEK1) Kinase activity screen
[14] = biological target: Casein kinase I isoform delta (Homo sapiens) (UniProt P48730); test: CSNK1D (CK1 delta) Kinase activity screen
Casein kinase I isoform delta (Homo sapiens), sequence (P48730 whole entry, looked up, canonical isoform): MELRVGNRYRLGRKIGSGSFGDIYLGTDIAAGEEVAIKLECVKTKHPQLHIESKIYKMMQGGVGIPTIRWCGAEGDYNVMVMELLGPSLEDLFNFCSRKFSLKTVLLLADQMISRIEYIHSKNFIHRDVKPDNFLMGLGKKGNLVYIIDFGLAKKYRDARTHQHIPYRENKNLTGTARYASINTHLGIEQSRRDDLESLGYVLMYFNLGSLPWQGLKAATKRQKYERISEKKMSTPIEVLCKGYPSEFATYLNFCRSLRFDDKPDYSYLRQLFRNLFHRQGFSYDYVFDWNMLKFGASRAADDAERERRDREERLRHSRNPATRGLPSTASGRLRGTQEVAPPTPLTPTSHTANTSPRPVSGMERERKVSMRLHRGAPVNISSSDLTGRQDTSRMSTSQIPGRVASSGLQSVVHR

[15] = biological target: Dual specificity protein kinase CLK1 (Homo sapiens, UniProt P49759); test: CLK1 Kinase activity screen
Dual specificity protein kinase CLK1, sequence (P49759 whole entry, looked up): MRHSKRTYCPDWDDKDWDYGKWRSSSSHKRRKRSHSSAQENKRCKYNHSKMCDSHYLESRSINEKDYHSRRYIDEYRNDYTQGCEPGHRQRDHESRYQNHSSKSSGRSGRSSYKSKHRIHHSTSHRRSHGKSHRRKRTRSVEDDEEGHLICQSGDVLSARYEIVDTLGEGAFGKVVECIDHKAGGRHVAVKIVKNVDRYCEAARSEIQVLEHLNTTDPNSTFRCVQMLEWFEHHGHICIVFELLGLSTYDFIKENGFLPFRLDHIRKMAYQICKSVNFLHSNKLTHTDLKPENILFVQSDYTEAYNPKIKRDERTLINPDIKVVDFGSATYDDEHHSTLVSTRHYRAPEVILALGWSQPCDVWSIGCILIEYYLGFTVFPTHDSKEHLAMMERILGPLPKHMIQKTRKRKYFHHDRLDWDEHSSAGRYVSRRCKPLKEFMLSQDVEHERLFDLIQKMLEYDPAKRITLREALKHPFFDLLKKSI

[16] = biological target: Dual specificity mitogen-activated protein kinase kinase 2 (Homo sapiens) (UniProt P36507); test: MAP2K2 (MEK2) Kinase activity screen
Dual specificity mitogen-activated protein kinase kinase 2 (Homo sapiens), sequence (P36507 whole entry): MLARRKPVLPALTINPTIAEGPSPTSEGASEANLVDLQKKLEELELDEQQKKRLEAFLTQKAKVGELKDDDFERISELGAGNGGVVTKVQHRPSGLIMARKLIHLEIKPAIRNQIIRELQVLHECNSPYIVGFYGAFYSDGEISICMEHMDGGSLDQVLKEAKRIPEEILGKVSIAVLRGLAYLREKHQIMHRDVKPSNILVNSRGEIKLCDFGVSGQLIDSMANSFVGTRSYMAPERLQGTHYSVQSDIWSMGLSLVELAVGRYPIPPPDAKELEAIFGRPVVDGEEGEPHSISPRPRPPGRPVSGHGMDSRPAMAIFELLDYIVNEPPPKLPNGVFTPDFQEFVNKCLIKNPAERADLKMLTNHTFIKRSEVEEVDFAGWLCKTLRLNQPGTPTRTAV

Alpha-2C adrenergic receptor, sequence (P18825 whole entry): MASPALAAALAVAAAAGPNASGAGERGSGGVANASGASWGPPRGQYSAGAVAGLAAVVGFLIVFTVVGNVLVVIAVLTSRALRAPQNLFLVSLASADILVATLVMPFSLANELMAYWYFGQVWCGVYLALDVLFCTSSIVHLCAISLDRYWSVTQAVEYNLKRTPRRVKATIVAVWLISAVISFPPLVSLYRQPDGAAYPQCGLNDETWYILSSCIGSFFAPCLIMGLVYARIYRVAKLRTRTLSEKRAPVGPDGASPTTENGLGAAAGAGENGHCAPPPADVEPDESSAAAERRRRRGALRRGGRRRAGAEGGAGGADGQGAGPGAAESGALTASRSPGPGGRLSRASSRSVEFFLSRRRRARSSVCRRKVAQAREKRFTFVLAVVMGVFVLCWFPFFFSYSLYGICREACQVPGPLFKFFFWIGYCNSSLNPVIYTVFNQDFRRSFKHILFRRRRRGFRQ
D(1A) dopamine receptor, sequence (P21728 whole entry): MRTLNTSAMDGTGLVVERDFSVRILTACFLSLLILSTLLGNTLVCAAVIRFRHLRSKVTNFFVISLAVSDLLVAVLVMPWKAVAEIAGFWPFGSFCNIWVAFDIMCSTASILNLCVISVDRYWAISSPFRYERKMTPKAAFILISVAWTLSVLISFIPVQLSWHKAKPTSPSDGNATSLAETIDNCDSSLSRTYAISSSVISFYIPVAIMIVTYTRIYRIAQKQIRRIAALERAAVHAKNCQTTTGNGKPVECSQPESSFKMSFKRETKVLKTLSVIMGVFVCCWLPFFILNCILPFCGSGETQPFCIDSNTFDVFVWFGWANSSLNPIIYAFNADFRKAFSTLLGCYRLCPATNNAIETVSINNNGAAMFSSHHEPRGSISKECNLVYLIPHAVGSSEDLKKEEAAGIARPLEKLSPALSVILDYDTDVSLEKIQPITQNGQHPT

Ki [1]: > 10000 nM
pKi [1]: < 5
Ki (D(1A) dopamine receptor; read-out: Ki): 1500 nM
Ki (D(1A) dopamine receptor; read-out: pKi (converted)): 1290 nM
SMILES: CN1CCN(C(=O)C(C)(C)c2ccc(C(=O)Nc3cn4cc(-c5cc(C(C)(C)C)cc(C(C)(C)C)c5)ccc4n3)cc2)CC1 [T3-CLK-N]

inhibition [2]: 10.9%
inhibition ([3]; Compound concentration 0.1 uM): 7.85%
inhibition ([3]; Compound concentration 1.0 uM): 2.48%
inhibition [4]: -8.24%
inhibition ([5]; Compound concentration 0.1 uM): 3.18%
inhibition ([5]; Compound concentration 1.0 uM): -1.48%
inhibition ([6]; Compound concentration 0.1 uM): 3.68%
inhibition ([6]; Compound concentration 1.0 uM): 2.12%
inhibition ([7]; Compound concentration 0.1 uM): 11%
inhibition ([7]; Compound concentration 1.0 uM): 37.5%
inhibition ([8]; Compound concentration 0.1 uM): -3.68%
inhibition ([8]; Compound concentration 1.0 uM): -0.398%
inhibition ([9]; Compound concentration 0.1 uM): -1.64%
inhibition ([9]; Compound concentration 1.0 uM): -0.564%
inhibition ([10]; Compound concentration 0.1 uM): -4.09%
inhibition ([10]; Compound concentration 1.0 uM): -6.26%
inhibition ([11]; Compound concentration 0.1 uM): 5.17%
inhibition ([11]; Compound concentration 1.0 uM): 9.37%
inhibition ([12]; Compound concentration 0.1 uM): 10.1%
inhibition ([12]; Compound concentration 1.0 uM): 55.7%
inhibition ([13]; Compound concentration 0.1 uM): 12.4%
inhibition ([13]; Compound concentration 1.0 uM): 10.9%
inhibition ([14]; Compound concentration 0.1 uM): -2.92%
inhibition ([14]; Compound concentration 1.0 uM): 4.31%
inhibition ([15]; Compound concentration 0.123 uM): 91.2%
inhibition ([15]; Compound concentration 1.11 uM): 99.1%
inhibition ([16]; Compound concentration 0.1 uM): 16.9%
inhibition ([16]; Compound concentration 1.0 uM): 13.8%
SMILES: CN1CCN(C(=O)C(C)(C)c2ccc(C(=O)Nc3cn4cc(-c5ccncc5)ccc4n3)cc2)CC1 [T3-CLK]
